Measured values from paper PMC6121902, “Conjugation with Dihydrolipoic Acid Imparts Caffeic Acid Ester Potent Inhibitory Effect on Dopa Oxidase Activity of Human Tyrosinase” (International Journal of Molecular Sciences, 2018).
Entries after “also recorded” stand apart in the source; their conditions may differ.

Legend:
[1] = system: mushroom tyrosinase; assay: Consumption of inhibitor by mushroom tyrosinase (substrate test, HPLC); type: biochemical; conditions: 100 μM, 10 min
Experimental: Some tyrosinase inhibitors are also substrates of the enzyme and this is a critical issue because their oxidation can lead to the formation of highly reactive, cytotoxic o-quinones. To rule out this possibility, either LCAME or CAME at 100 μM were exposed to mushroom tyrosinase, in the absence of L-DOPA, and after 10 min, the reaction mixtures were analyzed by HPLC. […] HPLC analyses for determination of the consumption of CAME and LCAME in the presence of mushroom tyrosinase were performed on a Agilent 1100 binary pump instrument equipped with a UV-visible detector using an octadecylsilane-coated column, 250 mm × 4.6 mm, 5 μm particle size (Phenomenex Sphereclone ODS, Bologna, Italy) at 0.7 mL/min, using the following gradient: 0.1% formic acid (eluant a)/ methanol (eluant b): 40% b, 0–10 min; from 40 to 80% b, 47.5–52.5 min; from 80 to 40% b, 52.5–57.5 min. Detection wavelength was set at 280 nm. Stock methanolic solutions of LCAME or CAME, ranging in concentration from 0.02 to 20 mM concentration were prepared dissolving a proper amount of the compound of interest in methanol. 100 μL of these solutions were added to 2 mL of 50 mM phosphate buffer at pH 6.8 (final concentrations range: 0.001–1 mM), in the presence or in the absence of 20 U/mL mushroom tyrosinase. After 10 min incubation at room temperature, 20 μL of a 100 mM solution of L-DOPA or L-tyrosine in 0.6 M HCl, were added (final concentration: 1 mM). Spectrophotometric analysis was performed by measuring the absorbance at 475 nm for 10 min at 2 min intervals. In control experiments, the reaction was run in the absence of LCAME. When required, the experiment was performed as above but adding L-DOP A soon after the addition of LCAME ([…]). In separate experiments, the assay was run as above with LCAME or CAME at 100 μM, in the presence or absence of L-DOPA, and after 10 min the mixture was analyzed by HPLC.

[2] = system: T1, human tyrosinase; assay: TH activity of human tyrosinase; type: biochemical; conditions: compared with DO activity
T1 construct: endogenous in cells

[3] = system: HBL cells; assay: MTT viability assay; type: cell-based, human; conditions: 25 or 50 μM, 24 h
Experimental: The effect of the inhibitors on cell viability was evaluated by phase contrast microscopy and by means of the 3-(4,5-dimethyl-2-thiazolyl)-2,5-diphenyl-2H-tetrazolium bromide (MTT) assay. HBL cells were treated with the compounds (25 or 50 μM) for 24 h. At the end of the incubation period, phase contrast images were taken and the MTT assay was performed to test the cytotoxicity of each compound.
Figure 4 Effect of caffeic acid derivatives on the viability of HBL cells. Cells were incubated for 24 h with the inhibitors at 25 or 50 µM. (a) Phase contrast microscopy images. Representative images are shown (n = 8) Bar size: 50 μm. (b) MTT viability assay. Cells were grown in 96-well plates to ~80% confluence in the presence or absence of the indicated compounds. After 24 h, MTT was added (1 mg/mL final concentration) and maintained in the culture media for 4 h. Cells were PBS-washed twice and solubilized in DMSO. Absorbance at 562 nm was measured and represented as a percentage of the control value. The mean ± SEM of 8 independent experiments is shown. **** p < 0.0001.
Cell viability was measured by the MTT assay. HBL cells were seeded into the wells of a 96-wells plate at a density of 10,000 cells in 200 μL cell culture media. The seeded cells were incubated for 18 h at 37 °C, then treated with the compounds (25 or 50 μM) for 24 h or left untreated. At the end of the incubation period, images were taken and the MTT assay was performed to test the cytotoxicity of the different caffeic acid derivatives.

[4] = system: tyrosinase; assay: Tyrosinase expression by Western blot (αPEP7), with or without NDP-MSH; type: cell-based, human
Experimental: Control HBL cells or cells grown in the presence of CAME (25 µM) or LCAME (25 or 50 µM) were stimulated for 48 h with a potent analogue of αMSH ([Nle^4,D-Phe^7]-α-MSH (NDP-MSH), 10^−7 M). Use of the 50 μM concentration of CAME was avoided since this concentration was somewhat cytotoxic as shown above. Expression of tyrosinase was then evaluated by Western blot using a specific antibody directed against tyrosinase (αPEP7). […] However, other mechanisms such as interference with activation and/or functional coupling of the melanocortin 1 receptor responsible for αMSH actions cannot be ruled out and a complete study of these possibilities is beyond the scope of this work. Accordingly, interference of LCAME with MITF expression or activity remains speculative at this stage. In any case, this preliminary observation deserves confirmation using cultured normal human melanocytes and further mechanistic analysis, as it may further support the potential use of LCAME as a skin depigmenting agent. Indeed, LCAME may act at two different levels, on one hand by inhibiting preexisting tyrosinase by a competitive mechanism, and on the other hand by interfering with αMSH-dependent induction of tyrosinase expression.
Figure 5 Effect on tyrosinase expression of CAME (25 µM) and LCAME (25 and 50 µM). HBL melanoma cells were incubated with or without the indicated compounds and stimulated with NDP-MSH (10^−7 M). After 48 h of treatment, tyrosinase levels were compared by Western blotting, performed as described in Materials and Methods. […] For each experimental condition, the fold-increase of tyrosinase abundance upon NDP-MSH treatment relative to the corresponding control was determined by densitometric analysis (ImageJ software) and is shown below the figure.
After protein separation by SDS-PAGE, they were transferred from the gel to the membrane and immunochemical detection with anti-PEP7 was performed as previously described. Briefly, the filters were blocked for 1 h in 2% bovine serum albumin in 1% Tween 20 PBS and incubated overnight at 4 °C with primary antibodies (1:4000 dilution). The filters were washed and further incubated with peroxidase-labeled mouse anti-rabbit IgG (1:5000 dilution). Staining and detection were done with ECL Plus Western Blotting Detection System chemiluminescent substrate (Thermo Fisher Scientific, Waltham, MA, USA). Images were acquired in a Fusion Solo.6S system (Vilber-Lourmat, Marne La Vallée, France). Signal intensities were estimated with ImageJ (National Institutes of Health, Bethesda, […], USA) in independent blots, and normalized with the corresponding loading controls (obtained by staining the membranes with an anti-ERK2 antibody).

SMILES: COC(=O)/C=C/c1ccc(O)c(O)c1SCCC(S)CCCCC(=O)O (stereo not drawn) [LCAME, 2-S-lipoylcaffeic acid methyl ester]
- consumption of the inhibitor ([1]; absence of L-DOPA): no significant consumption
- consumption of the inhibitor ([1]; presence of L-DOPA): The same result
- effect on TH activity of human tyrosinase [2]: weaker; also recorded: much smaller
- cytotoxicity (MTT) [3]: nontoxic; also recorded: not cytotoxic
- NDP-MSH-mediated stimulation of tyrosinase expression ([4]; 25 or 50 µM, NDP-MSH 10^−7 M, 48 h): apparently blocked
- basal tyrosinase expression ([4]; HBL cells, CAME 25 µM or LCAME 25 or 50 µM, Western blot): No alteration; also recorded: No significant changes
